The values that follow are results of earlier work, collected in patent US20170196794A1, “Oral Composition” (Kao Corporation, priority 2014, published 2017).

Structures are written as SMILES.

For this data set the following is noted: 20° C.
With `OC[C@@H](O)[C@@H](O)[C@H](O)[C@@H](O)CO` [sorbitol], the solubility in water is given as 72 % by mass. For `OC[C@@H](O)[C@@H](O)[C@H](O)[C@H](O)CO` [mannitol], the solubility in water is reported as 18 % by mass. Take `OC[C@@H](O)[C@@H](O)CO` [erythritol]: the solubility in water is recorded as 33 % by mass.

In the case of `OC[C@@H](O)[C@@H](O[C@H]1O[C@H](CO)[C@@H](O)[C@H](O)[C@H]1O)[C@H](O)[C@@H](O)CO` [maltitol], the solubility in water is given as 60 % by mass. Regarding `OC[C@@H](O)[C@H](O)[C@@H](O)CO` [xylitol], the solubility in water is 66 % by mass.
